Experimental data reported in patent EP1082127B1 (WARNER-LAMBERT COMPANY LLC, priority 1998, dated 1999).

What was measured:
[1] = target: T1, ICE (Homo sapiens, UniProt P29466); assay: ICE inhibition, Ki determination (fluorogenic substrate Ac-Tyr-Val-Ala-Asp-AMC); type: biochemical; conditions: 15 µM Ac-Tyr-Val-Ala-Asp-AMC, 0.5 nM enzyme, 30°C, reversible competitive model
T1 sequence (P29466 120-297 limits assumed): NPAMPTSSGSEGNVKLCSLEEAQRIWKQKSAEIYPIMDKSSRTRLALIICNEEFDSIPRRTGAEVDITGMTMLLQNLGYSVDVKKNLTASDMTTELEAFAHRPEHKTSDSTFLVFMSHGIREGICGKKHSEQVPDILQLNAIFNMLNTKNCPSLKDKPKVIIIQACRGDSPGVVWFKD
T1 sequence (P29466 317-404 limits assumed): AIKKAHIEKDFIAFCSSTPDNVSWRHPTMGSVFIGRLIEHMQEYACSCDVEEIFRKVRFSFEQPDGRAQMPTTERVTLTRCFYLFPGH
Protocol: Serial dilutions of each compound of the invention are prepared using an initial 8-fold dilution of a DMSO stock into HGE (100 mM HEPES, 20% glycerol v/v, 0.5 mM EDTA), followed by seven serial 2-fold dilutions into HGE + 12.5% DMSO. Ten microliters of diluted stocks or of vehicle (HGE + 12.5% DMSO) are placed in triplicate onto a 96-well microtiter plate. Enzyme is diluted into assay buffer (HGE, 5 mM DTT, 15 µM Ac-Tyr-Val-Ala-Asp-AMC; 0.5 nM final enzyme concentration, pre-warmed to 30°C), and this reaction mixture is added to the plate at 90 µL/well. Substrate hydrolysis is monitored for 300 seconds at 30°C using 385 and 460 nm excitation and emission filters, respectively. Triplicate curves are averaged, and slopes are evaluated by linear regression. To evaluate Ki, plots of percent inhibition vs inhibitor concentration are fit by non-linear regression to a reversible, competitive model: [formula] where the competition factor is (1 + [S]/KM) = 2.

[2] = target: T2, Ich-2 enzyme (Homo sapiens, UniProt P49662); assay: Ich-2 Colorimetric Dose-Response (IC50) Assay; type: biochemical; conditions: enzyme 64 nM, 60 µM Ac-Leu-Glu-Val-Asp-pNA; read-out: ICH2 IC50 (Caspase 4)
T2 sequence (P49662 81-270 limits assumed): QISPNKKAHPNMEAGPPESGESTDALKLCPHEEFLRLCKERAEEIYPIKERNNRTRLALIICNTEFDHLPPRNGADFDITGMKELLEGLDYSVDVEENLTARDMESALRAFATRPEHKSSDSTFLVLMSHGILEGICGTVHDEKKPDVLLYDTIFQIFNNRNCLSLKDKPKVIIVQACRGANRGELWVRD
T2 sequence (P49662 290-377 limits assumed): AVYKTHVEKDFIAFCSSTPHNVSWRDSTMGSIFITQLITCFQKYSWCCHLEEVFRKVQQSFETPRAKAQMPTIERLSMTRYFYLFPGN
Protocol: (§1) Diluted inhibitor stocks are prepared by two-fold serial dilution from a primary stock whose concentration is selected (based on screening results or on prior attempts at IC50 evaluation) to achieve approximately 95% inhibition in the most concentrated well. Aliquots of each dilution are transferred to a microtitre plate in triplicate.
(§2) ICE enzyme is diluted to approximately 24 nM in HGE buffer (100 mM Hepes pH 7.5, 0.5 mM EDTA, 20% glycerol, 0.1% Bovine Serum Albumin (BSA), and activated by adding dithiothreitol (DTT) to a final concentration of 5 mM. The activated enzyme is then aliquoted into wells containing inhibitor or vehicle, and the plate is preincubated for 60 minutes at ambient temperature. Substrate (Ac-Tyr-Val-Ala-Asp-pNA) is added to each well to a final concentration of 50 µM, and plates are placed in the microtitre plate-reader thermostated to 25°C. Beginning 5 minutes after addition of substrate, absorbance (405 nm) of wells is monitored for 1 hour, and activity is calculated as the mean rate of change in absorbance during this interval.
Inhibition of Ich-2 enzyme is assayed as described above for ICE, except that enzyme is used at 64 nM, and 60 µM of the Ich-2-specific substrate Ac-Leu-Glu-Val-Asp-pNA is used instead of the ICE substrate Ac-Tyr-Val-Ala-Asp-pNA.

[3] = tested on: IL-1β production in human peripheral blood mononuclear cells (PBMCs); assay: PBMC Cellular Assay - IC50 Determinations (LPS-stimulated IL-1β production, ELISA); type: cell-based; conditions: human PBMCs stimulated overnight with 10 ng/mL LPS, mature IL-1β by ELISA
Source text: Further evidence that compounds of Formula I are inhibitors of ICE is provided by their ability to inhibit IL-1β production in human peripheral blood mononuclear cells (PBMCs) as described herein. PBMCs are isolated from heparinized blood by centrifugation over a ficoll cushion, then washed three times with phosphate-buffered saline. PBMCs are suspended in a medium containing RPMI 1640 with glutamine, penicillin, streptomycin, and 2% human AB serum, then plated at 10^6 cells per well in 96-well flat bottom plates. PBMCs are stimulated overnight with 10 ng/mL of lipopolysaccharide (LPS, E. coli strain 0111:B4; Calbiochem) in the presence or absence of a compound of Formula I. Medium is harvested, and the level of mature IL-1β was determined using an ELISA kit from R&D Systems. Cells were cultured for an additional 4 hours in the presence of 3-(4,5-dimethylthiazol-2-yl)-2,5-diphenyltetrazolium bromide (MTT) to determine viability.

[4] = target: T1, ICE; assay: ICE Colorimetric Dose-Response (IC50) Assay; type: biochemical; conditions: 60 minutes preincubation, 50 µM Ac-Tyr-Val-Ala-Asp-pNA, 25°C
Protocol: as §1, §2

SMILES	Ki [1] [nM]	IC50 [2] [nM]	IC50 [3] [nM]	IC50 [4] [nM]
CC(C)[C@H](CC(=O)NCCc1cn(C)c2ccccc12)C(=O)NC(CC(=O)O)C(=O)CNS(=O)(=O)CC12CCC(CC1)C2(C)C (stereo partly shown) [Example 25]	5.8	3540	1100	48.3
CC(C)C(CC(=O)NCCc1ccncc1)C(=O)NC(CC(=O)O)C(=O)CNS(=O)(=O)CC12CCC(CC1=O)C2(C)C (stereo not shown) [Example 32, 5-(7,7-Dimethyl-2-oxo-bicyclo[2.2.1]hept-1-ylmethanesulfonylamino)-3-{3-methyl-2-[(2-pyridin-4-yl-ethylcarbamoyl)-methyl]-butyrylamino}-4-oxo-pentanoic acid]	26	14100	3300	458
CC(C)C(CC(=O)NCCn1nnc2ccccc21)C(=O)NC(C=O)CC(=O)O (stereo not shown) [Example 58, 3-{2-[(2-Benzotriazol-1-yl-ethylcarbamoyl)-methyl]-3-methyl-butyrylamino}-4-oxo-butyric acid]	31.8	10600	7750	336
CCOC1OC(=O)CC1NC(=O)C(CC(=O)NCCc1c[nH]c2ccccc12)C(C)C (stereo not shown) [Example 36, N^1-(2-Ethoxy-5-oxo-tetrahydro-furan-3-yl)-N^4-[2-(1H-indol-3-yl)-ethyl]-2-isopropyl-succinamide]	630	101000	1300	599
CC(C)C(CC(=O)NCCc1cn(C)c2ccccc12)C(=O)NC(CC(=O)O)C(=O)CNS(=O)(=O)CC12CCC(CC1=O)C2(C)C (stereo not shown) [Example 31, 5-(7,7-Dimethyl-2-oxo-bicyclo[2.2.1]hept-1-ylmethanesulfonylamino)-3-(3-methyl-2-{[2-(1-methyl-1H-indol-3-yl)-ethylcarbamoyl]-methyl}-butyrylamino)-4-oxo-pentanoic acid]	0.4	1240	240	5.9
CC(C)[C@H](CC(=O)NCCCc1ccccc1)C(=O)N[C@H](C=O)CC(=O)O [Example 7, (S,S)-3-{3-Methyl-2-[(3-phenyl-propylcarbamoyl)-methyl]-butyrylamino}-4-oxo-butyric acid]	115	20700	6000	444
CCOC1OC(=O)CC1NC(=O)C(CC(=O)NCCc1c[nH]c2c(C)cccc12)C(C)C (stereo not shown) [Example 45, N^1-(2-Ethoxy-5-oxo-tetrahydro-furan-3-yl)-N^4-[2-(7-methyl-1H-indol-3-yl)-ethyl]-2-isopropyl-succinamide]	37	174000	2600	750
CC(C)[C@H](CC(=O)NCCn1cnc2cc(Cl)c(Cl)cc21)C(=O)NC(C=O)CC(=O)O (stereo partly shown) [Example 56, 3-(2-{[2-(5,6-Dichloro-benzoimidazol-1-yl)-ethylcarbamoyl]-methyl}-3-methyl-butyrylamino)-4-oxo-butyric acid]	4.4	4020	3250	28.6
CCOC1OC(=O)CC1NC(=O)[C@@H](CC(=O)NCCn1cnc2cc(Cl)c(Cl)cc21)C(C)C (stereo partly shown) [Example 38, N^4-[2-(5,6-Dichloro-benzoimidazol-1-yl)-ethyl]-N^1-(2-ethoxy-5-oxo-tetrahydro-furan-3-yl)-2-isopropyl-succinamide]	16.4	18700	3400	377
CC(C)C(CC(N)=O)C(=O)NC(CC(=O)O)C(=O)CNS(=O)(=O)CC12CCC(CC1=O)C2(C)C (stereo not shown) [Example 2, 3-(2-Carbamoylmethyl-3-methyl-butyrylamino)-5-(7,7-dimethyl-2-oxo-bicyclo[2.2.1]hept-1-ylmethanesulfonylamino)-4-oxo-pentanoic acid]	106	3310	6250	790
Cc1cccc2c(CCNC(=O)CC(C(=O)NC(CC(=O)O)C(=O)CNS(=O)(=O)CC34CCC(CC3=O)C4(C)C)C(C)C)c[nH]c12 (stereo not shown) [Example 19, 5-(7,7-Dimethyl-2-oxo-bicyclo[2.2.1]hept-1-ylmethanesulfonylamino)-3-(3-methyl-2-{(2-(7-methyl-1H-indol-3-yl)-ethylcarbamoyl]-methyl}-butyrylamino)-4-oxo-pentanoic acid]	0.9	2380	400	8.5
CC(C)C(CC(=O)NCCc1ccccc1)C(=O)NC(CC(=O)O)C(=O)CNS(=O)(=O)CC12CCC(CC1=O)C2(C)C (stereo not shown) [Example 3, 5-(7,7-Dimethyl-2-oxo-bicyclo[2.2.1]hept-1-ylmethanesulfonylamino)-3-[3-methyl-2-(phenethylcarbamoyl-methyl)-butyrylamino]-4-oxo-pentanoic acid]	45	4650	3000	400
CC(=O)c1ccc2[nH]cc(CCNC(=O)CC(C(=O)NC(CC(=O)O)C(=O)CNS(=O)(=O)CC34CCC(CC3=O)C4(C)C)C(C)C)c2c1 (stereo not shown) [Example 33, 3-(2-{[2-(5-Acetyl-1H-indol-3-yl)-ethylcarbamoyl]-methyl}-3-methyl-butyrylamino)-5-(7,7-dimethyl-2-oxo-bicyclo[2.2.1]hept-1-ylmethanesulfonylamino)-4-oxo-pentanoic acid]	6.5	3090	1600	23
CCOC1OC(=O)CC1NC(=O)C(CC(=O)NCCn1c(C)nc2ccccc21)C(C)C (stereo not shown) [Example 46, N^1-(2-ethoxy-5-oxotetrahydro-furan-3-yl)-2-isopropyl-N^4-[2-(2-methyl-benzoimidazol-1-yl)-ethyl]-succinamide]	28.4	367000	6500	438
CC(C)C(CC(=O)N(C)CCc1cn(C)c2ccccc12)C(=O)NC(C=O)CC(=O)O (stereo not shown) [Example 21, 3-[3-Methyl-2-({methyl-[2-(1-methyl-1H-indol-3-yl)-ethyl]-carbamoyl}-methyl)-butyrylamino]-4-oxo-butyric acid]	28	209000	7500	130
CC(C)C(CC(=O)NCCCc1ccc2ccccc2n1)C(=O)NC(CC(=O)O)C(=O)CNS(=O)(=O)CC12CCC(CC1=O)C2(C)C (stereo not shown) [Example 27, 5-(7,7-Dimethyl-2-oxo-bicyclo[2.2.1]hept-1-ylmethanesulfonylamino)-3-{3-methyl-2-[(3-quinolin-2-yl-propylcarbamoyl)-methyl]-butyrylamino}-4-oxo-pentanoic acid]	17.5	9930	1000	147
